# Measurements: patent EP0371732A1, “Dopamine-beta-hydroxylase inhibitors” (SMITHKLINE BEECHAM CORPORATION, priority 1988, dated 1990)
# Experiments:
# [1] = test system: spontaneously hypertensive rats; test: mean arterial blood pressure in spontaneously hypertensive rats, indwelling cannulae in the tail arteries; type: in vivo; details: 50 mg/kg intraperitoneally, compared to vehicle-treated controls
# Method: Further, spontaneously hypertensive rats were treated with 1-(2-pyrrylmethyl)-1,3-dihydro-2H-imidazole-2-thione at a dose of 50 mg/kg intraperitoneally, and mean arterial blood pressure was monitored for 250 minutes using indwelling cannulae in the tail arteries. […] The maximal blood pressure reduction was approximately 35-40 mmHg.
# [2] = Teresawa et al., Japan. Cir. J. 35, 339 (1971); cited from earlier work
# DBH = biological target: T1, DBH (Homo sapiens, UniProt P09172); details: reported by Runti et al.; cited from earlier work
# T1 sequence (P09172 1-617): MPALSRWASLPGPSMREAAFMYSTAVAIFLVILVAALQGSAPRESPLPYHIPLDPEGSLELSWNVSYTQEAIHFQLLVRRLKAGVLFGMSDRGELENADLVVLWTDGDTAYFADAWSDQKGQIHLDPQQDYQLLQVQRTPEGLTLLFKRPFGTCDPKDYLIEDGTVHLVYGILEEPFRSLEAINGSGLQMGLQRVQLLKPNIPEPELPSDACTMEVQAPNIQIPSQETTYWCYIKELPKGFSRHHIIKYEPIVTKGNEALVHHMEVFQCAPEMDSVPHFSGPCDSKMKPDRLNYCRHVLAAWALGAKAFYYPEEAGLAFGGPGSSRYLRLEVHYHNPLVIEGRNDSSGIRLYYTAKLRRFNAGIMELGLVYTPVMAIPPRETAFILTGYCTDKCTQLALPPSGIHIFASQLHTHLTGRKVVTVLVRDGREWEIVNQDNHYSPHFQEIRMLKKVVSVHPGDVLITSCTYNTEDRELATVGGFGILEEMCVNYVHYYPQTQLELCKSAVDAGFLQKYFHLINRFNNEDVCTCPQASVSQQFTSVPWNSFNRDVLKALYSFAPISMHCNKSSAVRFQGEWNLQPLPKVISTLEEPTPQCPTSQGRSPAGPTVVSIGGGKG
molecule,measurement,setting,value
"S=c1[nH]ccn1Cc1ccc[nH]1 [1-(2-Pyrrylmethyl)-1,3-dihydro-2H-imidazole-2-thione]",time to significant blood pressure reductions following treatment,[1],≤ 30 min
same,maximal blood pressure reduction,"[1]; monitored for 250 minutes, lowest blood pressures when monitoring was discontinued",35-40 mmHg
CCCCc1ccc(C(=O)O)nc1 [Fusaric acid],toxic effect,[2],hepatotoxic
phenylpicolinic acid,inhibitory activity relative to fusaric acid,DBH,twice the inhibitory activity of fusaric acid
